Measurements from PMC7575488, “Phase 1 dose-escalation study of a novel oral PI3K/mTOR dual inhibitor, LY3023414, in patients with cancer” (Investigational New Drugs, 2020).
Like-named read-outs stand apart in the source and are kept apart here. Marks after values point to notes of the source that are not given here.

Tests used:
[1] = tested on: PI3K/AKT/mTOR downstream pathway; design: method as in PMID 27439478; conditions: in vitro; cited from earlier work
[2] = Blood pharmacokinetics (dried blood spot LC-MS/MS, non-compartmental analysis); assay type: in vivo, human; conditions: for CL/F: based on AUC0-∞; for CL/F (CLss/F): Cycle 1 Day 15 (multiple dose, steady state); for Tmax / half-life / Vd/F / AUC(0-inf) / Cmax / AUC(0-t): human, oral; for Vd/F: read-out: Vz/F; for AUC(0-t): tlast 12 h (AUCτ), read-out: AUC0-tlast
Description: For PK assessment, blood samples were collected at pre dose and 0.5, 1, 2, 4, 8, and 12 h post dose on 2 occasions: (i) on Day 1 of Cycle 1 (single dose), and (ii) on Day 15 of Cycle 1 (multiple dose). For PD assessment, blood samples were collected at pre dose and 0.5, 1, 2, and 4 h post dose on 2 occasions: (i) on Day 1 of Cycle 1 (single dose), and (ii) on Day 15 of Cycle 1 (multiple dose).
Blood concentrations of LY3023414 were assayed using a validated dried blood spot liquid chromatography-mass spectrometry/mass spectrometry method at a designated laboratory. The PK parameter estimates for LY3023414 were calculated by standard non-compartmental methods of analysis using Phoenix WinNonlin® 8.0 (Certara, L.P.; Princeton, NJ, USA). The primary parameters for analysis were maximum observed blood concentration (Cmax), time of Cmax (tmax), area under the blood concentration-time curve from time zero to the last measurable blood concentration (AUC0-tlast), and area under the blood concentration-time curve from time zero to infinity (AUC0-∞) of LY3023414. Other non-compartmental parameters, such as half-life (t1/2), apparent total body clearance (CL/F) on Cycle 1 Day 1, apparent total body clearance at steady state (CLss/F) on Cycle 1 Day 15, and apparent volume of distribution during the terminal phase (Vz/F), were also assessed.

[3] = design: method as in PMID 29636360; conditions: across a wide pH range; cited from earlier work
PI3K/mTOR = tested on: PI3K/mTOR; design: method as in PMID 29636360; conditions: at doses ≥150 mg; cited from earlier work
advanced malignancies = assay: Antitumor activity, tumor response by RECIST v1.1; assay type: in vivo, human
Description: Tumor response was assessed by computed tomography scans or magnetic resonance imaging according to RECIST v1.1 [18] at baseline and thereafter every 6 weeks until patients discontinued from the study. The assessment included all patients who received ≥1 dose of study drug.

[4] = whole blood, 150 mg, 150 mg BID, Cycle 1 Day 1 (single dose), blood, N = 3, geometric mean (% CV)
[5] = whole blood, 150 mg, 150 mg BID, Cycle 1 Day 15 (multiple dose), blood, N = 3, geometric mean (% CV)
[6] = whole blood, 200 mg, 200 mg BID, Cycle 1 Day 1 (single dose), blood, N = 9, geometric mean (% CV)
[7] = whole blood, 200 mg, 200 mg BID, Cycle 1 Day 15 (multiple dose), blood, N = 7, geometric mean (% CV)

## CO[C@@H](C)Cn1c(=O)n(C)c2cnc3ccc(-c4cncc(C(C)(C)O)c4)cc3c21 [LY3023414]
[1]
  Inhibition of phosphorylation of the PI3K/AKT/mTOR downstream pathway: dose-dependent inhibition
[2]; 150 mg BID, Cycle 1 Day 1 (single dose), N = 3, geometric mean (% CV)
  CL/F: 49.2 (19) L/hr
[2]; 150 mg BID, N = 3, geometric mean (% CV)
  CL/F (CLss/F): 30.4 (45) L/hr
[2]; 200 mg BID, Cycle 1 Day 1 (single dose), N = 8, geometric mean (% CV 29)
  CL/F: 48.5^c (29) L/hr
[2]; 200 mg BID, N = 7, geometric mean (% CV)
  CL/F (CLss/F): 48.6 (33) L/hr
[2]; whole blood (dried blood spot), 200 mg, post administration, each dose level (150 and 200 mg), read-out: median tmax
  Tmax: 1 to 3 h
[2]; whole blood (dried blood spot), Days 1 and 15 in Cycle 1, each dose level, read-out: geometric mean t1/2 (converted)
  half-life: ~2 h
[2]; whole blood, 150 mg, 150 mg BID, Cycle 1 Day 1 (single dose), N = 3, geometric mean (% CV)
  Vd/F: 113 L
[2]; [4]
  AUC(0-inf): 3050 ng·h/mL
  Cmax: 792 ng/mL
  AUC(0-t): 3000 ng·h/mL
[2]; whole blood, 150 mg, 150 mg BID, Cycle 1 Day 1 (single dose), blood, N = 3, geometric mean (range), read-out: t1/2 (converted)
  half-life: 1.59 h
[2]; whole blood, 150 mg, 150 mg BID, Cycle 1 Day 1 (single dose), blood, N = 3, median (range), read-out: tmax
  Tmax: 2.93 h
[2]; whole blood, 150 mg, 150 mg BID, Cycle 1 Day 15 (multiple dose), N = 3, geometric mean (% CV)
  Vd/F: 79.3 L
[2]; [5]
  AUC(0-inf): 5010 ng·h/mL
  Cmax: 1570 ng/mL
  AUC(0-t): 4920 ng·h/mL
[2]; whole blood, 150 mg, 150 mg BID, Cycle 1 Day 15 (multiple dose), blood, N = 3, geometric mean (range), read-out: t1/2 (converted)
  half-life: 1.81 h
[2]; whole blood, 150 mg, 150 mg BID, Cycle 1 Day 15 (multiple dose), blood, N = 3, median (range), read-out: tmax
  Tmax: 1 h
[2]; whole blood, 200 mg, 200 mg BID, Cycle 1 Day 1 (single dose), N = 8, geometric mean (% CV 35)
  Vd/F: 136 L
[2]; whole blood, 200 mg, 200 mg BID, Cycle 1 Day 1 (single dose), blood, N = 8, geometric mean (% CV 29)
  AUC(0-inf): 4120 ng·h/mL
[2]; whole blood, 200 mg, 200 mg BID, Cycle 1 Day 1 (single dose), blood, N = 8, geometric mean (range 1.52–3.15), read-out: t1/2 (converted)
  half-life: 1.94 h
[2]; [6]
  Cmax: 1020 ng/mL
  AUC(0-t): 4140 ng·h/mL
[2]; whole blood, 200 mg, 200 mg BID, Cycle 1 Day 1 (single dose), blood, N = 9, median (range), read-out: tmax
  Tmax: 1.95 h
[2]; whole blood, 200 mg, 200 mg BID, Cycle 1 Day 15 (multiple dose), N = 7, geometric mean (% CV)
  Vd/F: 129 L
[2]; [7]
  AUC(0-inf): 4210 ng·h/mL
  Cmax: 1010 ng/mL
  AUC(0-t): 4100 ng·h/mL
[2]; whole blood, 200 mg, 200 mg BID, Cycle 1 Day 15 (multiple dose), blood, N = 7, geometric mean (range), read-out: t1/2 (converted)
  half-life: 1.83 h
[2]; whole blood, 200 mg, 200 mg BID, Cycle 1 Day 15 (multiple dose), blood, N = 7, median (range), read-out: tmax
  Tmax: 1.97 h
[3]
  Solubility: good solubility
PI3K/mTOR
  Target inhibition: ≥ 90%
Advanced malignancies; 150 mg
  Best overall response of stable disease: 3 patients
Advanced malignancies; 200 mg
  Best overall response of stable disease: 2 patients
Advanced malignancies; 200 mg BID
  Progressive disease as best response: 4 patients
Advanced malignancies; 5 of 9 evaluable patients
  Disease control rate: 55.6%
Advanced malignancies; 9 evaluable patients, RECIST v1.1
  Complete response (CR) or partial response (PR): No complete response (CR) or partial response (PR)
Advanced malignancies; both dose levels, 9 evaluable patients
  Best overall response of stable disease: 5 patients
